These results are taken from ChEMBL document CHEMBL1667843, “Discovery of a potent series of non-steroidal non α-trifluoromethyl carbinol glucocorticoid receptor agonists with reduced lipophilicity” (Bioorg Med Chem Lett, 2011).

One may read the IC50 as the concentration that gives 50% inhibition.

Test [1] has as its target T1, Glucocorticoid receptor (Homo sapiens, UniProt P04150).
T1 sequence (P04150 whole entry): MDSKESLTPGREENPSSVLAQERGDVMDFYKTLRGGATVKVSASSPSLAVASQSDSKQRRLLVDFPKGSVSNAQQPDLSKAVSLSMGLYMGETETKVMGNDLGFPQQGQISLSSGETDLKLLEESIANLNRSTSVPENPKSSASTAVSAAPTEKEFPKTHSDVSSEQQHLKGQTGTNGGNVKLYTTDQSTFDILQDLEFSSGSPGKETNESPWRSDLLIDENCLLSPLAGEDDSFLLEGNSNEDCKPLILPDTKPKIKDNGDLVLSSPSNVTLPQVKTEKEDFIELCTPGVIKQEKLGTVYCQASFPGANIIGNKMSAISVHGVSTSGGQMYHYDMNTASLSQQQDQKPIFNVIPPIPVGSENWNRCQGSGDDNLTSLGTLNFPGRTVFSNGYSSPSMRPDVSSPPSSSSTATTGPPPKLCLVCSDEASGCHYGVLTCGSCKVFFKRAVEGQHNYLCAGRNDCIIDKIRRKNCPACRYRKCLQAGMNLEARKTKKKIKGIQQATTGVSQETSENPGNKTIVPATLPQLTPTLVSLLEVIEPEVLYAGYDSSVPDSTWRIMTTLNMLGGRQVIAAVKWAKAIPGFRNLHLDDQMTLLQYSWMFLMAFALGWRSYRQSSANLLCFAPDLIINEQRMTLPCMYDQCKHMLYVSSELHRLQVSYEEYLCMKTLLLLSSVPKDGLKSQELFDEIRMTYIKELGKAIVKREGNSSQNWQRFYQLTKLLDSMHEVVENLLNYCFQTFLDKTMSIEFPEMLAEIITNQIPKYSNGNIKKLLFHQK
In words: Displacement of fluorescent-labelled Dexamethasone from glucocorticoid receptor.

The target of test [2] is T1, Glucocorticoid receptor. As to the kind of experiment: Agonist activity at glucocorticoid receptor in human A549 cells by NF-kappaB transrepression assay. Format: functional, cell-based.
The target in test [3] is T1, Glucocorticoid receptor. As to the kind of experiment: Agonist activity at GR in human A549 cells transfected with luciferase gene linked to MMTV promoter assessed as luciferase transactivation activity. Format: functional, cell-based.
Test [4] can be described thus: Selectivity ratio of progesterone receptor to glucocorticoid receptor.
Test [5] can be described thus: Selectivity ratio of androgen receptor to glucocorticoid receptor.

Take `CNc1ccc(-n2ncc3c(NC[C@H](C)NS(=O)(=O)c4c(C)cc(C)cc4C)cc(C)cc32)cc1`: the half-maximal inhibitory concentration (IC50) in test [1] is 20 nM; in test [2] it was 5.01 nM; in test [3], 251 nM.

On to `Cc1cc(C)c(S(=O)(=O)N[C@@H](C)CNc2cc(C)cc3c2cnn3-c2ccc(C#N)cc2)c(C)c1`, for which the IC50 in test [1] is 15.8 nM; in test [2], 2 nM; in test [3], 5.01 nM. In addition, the Selectivity ratio was 10 in test [4] and above 100 in test [5].

For `CCCS(=O)(=O)N[C@@H](C)CNc1cc(C)cc2c1cnn2-c1cccc(C(=O)NC(C)C)c1`, the half-maximal inhibitory concentration (IC50) in test [1] was 12.6 nM; in test [2], 20 nM; in test [3], 79.4 nM.

Take `COc1cccc(-n2ncc3c(NC[C@H](C)NS(=O)(=O)c4c(C)cc(C)cc4C)cc(C)cc32)c1`: the 50% inhibitory concentration (IC50) is 50.1 nM in test [2] and 200 nM in test [3]. Further, the Selectivity ratio in test [4] is 10; in test [5] it was above 100.

In the case of `CCN(C[C@](O)(CNc1cccc2c1cnn2-c1ccc(F)cc1)C(F)(F)F)C(=O)c1c(Cl)cccc1Cl`, the IC50 in test [1] was 15.8 nM; in test [2], 0.0794 nM; in test [3], 0.316 nM.

For `Cc1cc(C)c(S(=O)(=O)N[C@@H](C)CNc2cc(C)cc3c2cnn3-c2cccc(NC3CC3)c2)c(C)c1`, the half-inhibitory concentration (IC50) in test [1] is 7.94 nM; in test [2], 0.316 nM; in test [3], 1.26 nM.

Consider `Cc1cc(NC[C@H](C)NS(=O)(=O)C2CC2)c2cnn(-c3cccc(C(=O)NC(C)C)c3)c2c1`, for which the values for the IC50 in test [1], in test [2] and in test [3] were 15.8 nM, 2 nM and 12.6 nM, respectively.

Take `Cc1cc(NC[C@H](C)NS(=O)(=O)C2CC2)c2cnn(-c3cccc(C(=O)N4CCC[C@H]4C(N)=O)c3)c2c1`: the values for the IC50 in test [1], in test [2] and in test [3] were 158 nM, 794 nM and 3980 nM, respectively.

In the case of `Cc1cc(C)c(S(=O)(=O)N[C@@H](C)CNc2cc(C)cc3c2cnn3-c2cccc(N3CCCC(CO)C3)c2)c(C)c1` (stereo in doubt; 14l), the IC50 was 25.1 nM in test [1], 20 nM in test [2] and 251 nM in test [3].

For `Cc1cc(C)c(S(=O)(=O)N[C@@H](C)CNc2cc(C)cc3c2cnn3-c2ccc(NCC(N)=O)cc2)c(C)c1`, the figures for the IC50 in test [1], in test [2] and in test [3] were 15.8 nM, 3.16 nM and 63.1 nM, respectively.

As for `Cc1cc(C)c(S(=O)(=O)N[C@@H](C)CNc2cc(C)cc3c2cnn3-c2cccc(N3CCCC(CO)C3)c2)c(C)c1` (single isomer, unassigned; isomer 1), the half-maximal inhibitory concentration (IC50) in test [1] is 25.1 nM; in test [2] it was 39.8 nM; in test [3], 631 nM.

With `Cc1cc(NC[C@H](C)NS(=O)(=O)C2CC2)c2cnn(-c3cccc(C(=O)N[C@@H](C)C(N)=O)c3)c2c1`, the IC50 in test [1] is 39.8 nM; in test [2], 5.01 nM; in test [3], 200 nM.

Take `Cc1cc(C)c(S(=O)(=O)N[C@@H](C)CNc2cc(C)cc3c2cnn3-c2cccc(NCC(N)=O)c2)c(C)c1`: the IC50 in test [1] is 12.6 nM; in test [2], 0.251 nM; in test [3], 2.51 nM.

As for `Cc1cc(C)c(S(=O)(=O)N[C@@H](C)CNc2cc(C)cc3c2cnn3-c2ccc(N[C@@H](C)C(N)=O)cc2)c(C)c1`, the concentration for half-maximal inhibition (IC50) in test [1] was 31.6 nM; in test [2] it was 7.94 nM; in test [3], 15.8 nM.

As to `Cc1cc(C)c(S(=O)(=O)N[C@@H](C)CNc2cc(C)cc3c2cnn3-c2ccc(NC3CC3)cc2)c(C)c1`, the values for the IC50 in test [1], in test [2] and in test [3] were 7.94 nM, 1.26 nM and 7.94 nM, respectively.

`Cc1cc(NC[C@H](C)NS(=O)(=O)C2CC2)c2cnn(-c3cccc(C(=O)N[C@H](C)C(N)=O)c3)c2c1`: the IC50 in test [1] is 31.6 nM; in test [2], 3.16 nM; in test [3], 126 nM.

As for `Cc1cc(NC[C@H](C)NS(=O)(=O)C(C)C)c2cnn(-c3cccc(C(=O)NC(C)C)c3)c2c1`, the half-maximal inhibitory concentration (IC50) in test [1] was 39.8 nM; in test [2], 7.94 nM; in test [3], 50.1 nM.

As for `Cc1cc(C)c(S(=O)(=O)N[C@@H](C)CNc2cc(C)cc3c2cnn3-c2cccc(N3CCCC(CO)C3)c2)c(C)c1` (single isomer, unassigned; isomer 2), the IC50 was 15.8 nM in test [1], 39.8 nM in test [2] and 316 nM in test [3].

On to `Cc1cc(NC[C@H](C)NS(=O)(=O)C2CC2)c2cnn(-c3cccc(C(=O)N4CCCC(CO)C4)c3)c2c1` (some centres not stated), for which the concentration for half-maximal inhibition (IC50) in test [1] was 126 nM; in test [2] it was 251 nM; in test [3], above 6310 nM.

On to `Cc1cc(C)c(S(=O)(=O)N[C@@H](C)CNc2cc(C)cc3c2cnn3-c2ccc(N[C@H](C)C(N)=O)cc2)c(C)c1`, for which the IC50 is 25.1 nM in test [1], 7.94 nM in test [2] and 158 nM in test [3].

`Cc1cc(C)c(S(=O)(=O)N[C@@H](C)CNc2cc(C)cc3c2cnn3-c2cccc(F)c2)c(C)c1`: the IC50 in test [1] was 15.8 nM; in test [2], 7.94 nM; in test [3] it was 25.1 nM. Also, the Selectivity ratio in test [4] is 10; in test [5], above 100.

Turning to `Cc1cc(C)c(S(=O)(=O)N[C@@H](C)CNc2cc(C)cc3c2cnn3-c2ccc(F)cc2)c(C)c1`, the figures for the concentration for half-maximal inhibition (IC50) in test [1], in test [2] and in test [3] were 15.8 nM, 1.26 nM and 3.98 nM, respectively. Also, the Selectivity ratio is 10 in test [4] and above 100 in test [5].

Consider `Cc1cc(C)c(S(=O)(=O)N[C@@H](C)CNc2cc(C)cc3c2cnn3-c2ccc(NC(C)C)cc2)c(C)c1`, for which the figures for the IC50 in test [1], in test [2] and in test [3] were 12.6 nM, 2 nM and 10 nM, respectively.

`Cc1cc(C)c(S(=O)(=O)NC[C@@H](C)Nc2cc(C)cc3c2cnn3-c2ccc(F)cc2)c(C)c1`: the concentration for half-maximal inhibition (IC50) was 12.6 nM in test [1], 6.31 nM in test [2] and 50.1 nM in test [3].

For the compound `Cc1cc(C)c(S(=O)(=O)N[C@@H](C)CNc2cc(C)cc3c2cnn3-c2cccc(N[C@H](C)C(N)=O)c2)c(C)c1`, the IC50 is 15.8 nM in test [1], 0.2 nM in test [2] and 2 nM in test [3].

With `Cc1cc(C)c(S(=O)(=O)N[C@@H](C)CNc2cc(C)cc3c2cnn3-c2cccc(NC(C)C)c2)c(C)c1`, the half-inhibitory concentration (IC50) in test [1] was 6.31 nM; in test [2] it was 0.126 nM; in test [3], 0.501 nM.

In the case of `Cc1cc(C)c(S(=O)(=O)N[C@@H](C)CNc2cc(C)cc3c2cnn3-c2cccc(N[C@@H](C)C(N)=O)c2)c(C)c1`, the IC50 was 5.01 nM in test [1], 0.501 nM in test [2] and 1.58 nM in test [3].

In the case of `Cc1cc(NC[C@H](C)NS(C)(=O)=O)c2cnn(-c3cccc(C(=O)NC(C)C)c3)c2c1`, the IC50 was 126 nM in test [1], 200 nM in test [2] and 2000 nM in test [3].

On to `COc1ccc(-n2ncc3c(NC[C@H](C)NS(=O)(=O)c4c(C)cc(C)cc4C)cc(C)cc32)cc1`, for which the IC50 in test [1] is 15.8 nM; in test [2], 12.6 nM; in test [3] it was 50.1 nM. The Selectivity ratio is 10 in test [4] and above 100 in test [5].

In the case of `Cc1cc(C)c(S(=O)(=O)N[C@@H](C)CNc2cc(C)cc3c2cnn3-c2ccc(S(C)(=O)=O)cc2)c(C)c1`, the half-maximal inhibitory concentration (IC50) in test [1] was 31.6 nM; in test [2], 5.01 nM; in test [3] it was 12.6 nM. For the same compound, the Selectivity ratio in test [4] is 10; in test [5] it was above 100.

As to `Cc1cc(NC[C@H](C)NS(=O)(=O)C2CC2)c2cnn(-c3cccc(C(=O)NCC(N)=O)c3)c2c1`, the values for the IC50 in test [1], in test [2] and in test [3] were 7.94 nM, 5.01 nM and 200 nM, respectively.

On to `Cc1cc(NC[C@H](C)NS(=O)(=O)C2CC2)c2cnn(-c3cccc(C(=O)N(C)[C@H](C)C(N)=O)c3)c2c1`, for which the IC50 is 31.6 nM in test [1], 2.51 nM in test [2] and 50.1 nM in test [3].
